Assay type in all cases: cell-based, Pseudomonas aeruginosa
Assay [1] has as its system LasR activity, P. aeruginosa PAO1/plasI-LVAgfp. The assay is described as follows: Las QS reporter assay (GFP fluorescence). Conditions: for LasR activity: at 1-10× IC50 values for biofilm inhibition; for inhibition of Las-QS system: fluorescence dose curves, 12 and 24 h. As for the experimental part: (§1) As introduced above, the role of QS in biofilm formation is well documented and therefore the abilities of 7 and 21 to inhibit QS in P. aeruginosa were evaluated. For this purpose, two wild-type P. aeruginosa QS reporter strains were prepared that contain the plasmids plasI-LVAgfp and prhII-LVAgfp. (see: The Examples) These strains report the activity of two intracellular QS receptors in P. aeruginosa (LasR and RhlR) by the production of green fluorescent protein (gfp), allowing for LasR and RhlR activities, and thus QS levels, to be quantified by fluorescence. […] Studies of related 2-ABI derivatives have shown that this class of molecules is bacterial cell permeable, allowing us to surmise that 7 and 21 could act on the Las and Rhl systems intracellularly. […] The precise targets of 7 and 21 that result in QS disruption are not yet known.
(§2) To evaluate the activity of compounds 7 and 21 on QS in P. aeruginosa, we prepared two P. aeruginosa QS reporter strains: PAO1/plasI-LVAgfp and PAO1/prhII-LVAgfp. These strains contain the reporter plasmids plasI-LVAgfp and prhII-LVAgfp, respectively, which contain the laslI or rhII promoter sequences fused to LVAgfp. Binding of activated LasR or RhlR to these promoters induces GFP production, which can be quantified by fluorescence and is proportional to the level of LasR or RhlR activation. LVAgfp is an unstable form of GFP with an estimated half-life of 40-60 min, which allows for a more real-time analysis of gene expression (wild-type GFP has a half-life of greater than 1 day). Further, this specific GFP is the variant GFPmut3b that has a shifted excitation maximum near 501 nm (wild-type GFP has an excitation maximum near 395 nm); emission maximum is similar to wild-type GFP at 511 nm (wild-type GFP has emission maximum near 508 nm). Utilizing this GFP variant is key to detection over native fluorescent pigments that are produced in P. aeruginosa and excite near 400 nm and emit near 500 nm. Preparation and analysis of the PAO1/plasI-LVAgfp and PAO1/prhII-LVAgfp reporters are outlined below.
(§3) Compounds 7 and 21 were evaluated for their ability to modulate the Las and Rhl systems using the P. aeruginosa PAO1/plasI-LVAgfp and PAO1/prhII-LVAgfp reporters. We used the same exact setup as the static biofilm assay in 96-well microtiter plates for P. aeruginosa with the exception that freezer stocks were streaked on LB/agar with 300 μg/mL Carb. Microtiter plates were prepared similar to dose-response analysis such that final well concentrations upon inoculum addition ranged from 10^x μM where x=3.5, 3, 2.5, 2, 1.5, 1, 0, −1, or −2. Measurements of FL500/540 and OD600 were made at 12 and 24 h, and after 24 h the samples were evaluated for biofilm formation using the CV procedure. […]

For assay [2], the system named is RhlR activity, P. aeruginosa PAO1/prhII-LVAgfp. The assay is described as follows: Rhl QS reporter assay (GFP fluorescence). Particulars: for RhlR activity: at 1-10× IC50 values for biofilm inhibition; for inhibition of Rhl-QS system: fluorescence dose curves, 12 and 24 h. As for the experimental part: as §1, §2, §3
Background: In a reporter assay the amount or activity of a reporter protein is the signal.

The subject of assay [3] is P. aeruginosa PAO1 biofilm. The assay is described as follows: crystal violet static biofilm inhibition assay. Particulars: for IC50: Pseudomonas aeruginosa, PAO1. Here is the method: Stilbenes 1, 2, and 4a-b were tested for inhibition of biofilm formation in a wild-type P. aeruginosa strain (PAO1) at 500 μM using standard static biofilm growth assays.
Biofilms were grown in a modified M9 minimal media in 96-well microtiter plates, and crystal violet staining of the surface-associated biomass was used to quantify biofilm growth at 12 and 24 h (see The Examples).
A modified version of the widely used crystal violet (CV) microtiter plate biofilm assay, first described by Christensen et al. and later popularized by O'Toole et al., [57] was used in this study and is described in detail below.
Compounds to be evaluated for biofilm modulatory activity were added to the assay microtiter plates by means of a “solvent evaporation” delivery. This delivery method involves preparation of compound stock solutions, addition of stocks to microtiter plates at appropriate volumes to obtain target molar quantities per well, evaporation of the solvent, and re-solubilization of the compound in the final assay medium upon inoculum addition. This delivery method was adopted to avoid the biofilm inhibitory effects observed with an “organic solvent-to-solution” delivery method (e.g., DMSO-to-media; data not shown), which is more commonly done in small molecule screens. EtOH was chosen as the solvent for solvent evaporation delivery in this study based on the chemical resistance limitations of polystyrene microtiter plates. Prior to each experiment, EtOH stock solutions of compounds being evaluated were prepared, diluted, and added to microtiter plates at varied volumes to obtain a target final concentration per well upon inoculum addition. Plates were incubated at 37° C. to evaporate EtOH and sterilized in a Baker SterilGARD III Advance Biological Safety Cabinet by UV-C germicidal irradiation for 30 min (lids removed). EtOH only was added to wells designated as “no compound” positive controls (Pos. Con.) and “no bacteria” negative controls (note, controls lacking bacteria yielded no significant staining in the CV assay (data not shown)). The outer wells were never used for test samples as evaporation and significant deviations in growth were observed; thus, outer wells were filled with sterile 18 MΩ H2O to minimize these effects.
Bacterial samples for biofilm assessment were prepared by first streaking a freezer stock of P. aeruginosa PAO1 on an LB/agar plate and incubating at 37° C. for ˜16 h. Single colonies were selected and used to inoculate LB medium (10 mL) in a 25 mL Erlenmeyer flask. The culture was grown on an incubator-shaker (200 rpm) at 37° C. for ˜16 h to an OD600 of ˜1.0. Overnight cultures were gently decanted into falcon tubes to minimize transfer of biofilm produced during overnight growth. An inoculating culture was prepared by centrifuging an aliquot of overnight culture at 3,000 rpm for 10 min, removal of the supernatant, and then re-suspending the pellet in 95:5 M9+:LB at 10-fold the initial volume (effecting a 1-in-10 dilution; OD600 ˜0.1-0.2). Using a multi-channel pipette, this culture was added to test microtiter plates in 200 μL aliquots. The well contents were mixed using a 10 μL multi-channel pipette in a swirling motion; insoluble compound samples were noted and later excluded from the data set as needed.
Plates were covered with the provided lid and incubated statically at 37° C. for 12-24 h. Maximal biofilm formation is obtained at 24 h, after which the amount of biofilm declines unless fresh nutrients are provided. After incubation, the OD600 was measured, and the bacterial suspension was removed by inverting and shaking the plate over a waste pan and then taping on a paper towel (process termed “dumping”). Non-biofilm associated biomaterial was removed by adding 225 μL PBS and dumping (process termed “washing”) and then repeating this washing process. Biofilm was fixed to the microtiter plates by uncovering the plate and thermally dehydrating at 37° C. […]

Setting [4] is: 12 h incubation, CV assay, read-out: 12 h biofilm IC50.
[5] abbreviates: 24 h incubation, CV assay, read-out: 24 h biofilm IC50.
Setting [6] is: added exogenously to solution, read-out: IC50 for biofilm inhibition.
Where [7] appears, read: 24 h, read-out: IC50 for biofilm inhibition.
Setting [8] is: Table 1, crystal violet, read-out: IC50, P. aeruginosa PAO1 biofilm inhibition.

Where two headings read alike, the source gives them in different places.

For `Cc1cc2nc(N)[nH]c2cc1C` [Compound 21, 5,6-Dimethyl-2-aminobenzimidazole], the LasR activity entry in assay [1] is reported as “significant reduction”. Also, in assay [1], the “inhibition of Las-QS system” value is listed as “able to inhibit”. Also, the RhlR activity entry in assay [2] is recorded as “significant reduction”. For the same compound, the “inhibition of Rhl-QS system” value in assay [2] is recorded as “able to inhibit”. In addition, in assay [3] (P. aeruginosa), the “concentrations at which inhibitor (not activator) of biofilm formation” value is given as at most 3.2 mM. For the same compound, the half-maximal inhibitory concentration (IC50) in assay [3] (setting [4]) amounted to 4.3 µM; in assay [3] (setting [5]), 4 µM; in assay [3] (setting [6]), 4 µM; in assay [3] (setting [7]) it was 4 µM; in assay [3] (setting [8]), 4 µM. In addition, the “fold more active than parent compound 7” value in assay [3] (biofilm inhibition IC50) was around 10 fold.
As for `Nc1nc2ccccc2[nH]1` [Compound 7, 2-aminobenzimidazole], the LasR activity entry in assay [1] is “significant reduction”. In assay [1], the “inhibition of Las-QS system” value is on record as “able to inhibit”. Moreover, in assay [2], the RhlR activity result is listed as “significant reduction”. Also, in assay [2], the “inhibition of Rhl-QS system” value is given as “able to inhibit”. In addition, the “inhibition of biofilm formation” value in assay [3] (24 h) was 94%. In addition, the half-maximal inhibitory concentration (IC50) in assay [3] (setting [4]) was found to be 50.5 µM; in assay [3] (setting [5]), 46.8 µM; in assay [3] (setting [6]), 47 µM; in assay [3] (setting [7]) it was 47 µM; in assay [3] (setting [8]), 47 µM.

For orientation: IC50 means the midpoint of a concentration-inhibition curve.

Values taken from patent US10292390B2, “Inhibition and dispersion of bacterial biofilms with 2-aminobenzimidazole derivatives” (WISCONSIN ALUMNI RESEARCH FOUNDATION, priority 2011, dated 2019).
